Laboratory results taken from the NIST ThermoML archive (doi:10.1021/je800658v).
Numbers after ± are expanded uncertainties.

Test: activity coefficient (dimensionless); of the first substance listed, at infinite dilution; xn = mol fraction of the nth substance listed
Conditions: Liquid, inverse gas chromatography, x1 = 0

In the case of Cc1ccccc1C [1,2-dimethylbenzene] + CCCCn1cc[n+](C)c1.F[B-](F)(F)F, the activity coefficient (303.35 K) is reported as 6.53 ± 0.39, the activity coefficient (312.55 K) is reported as 5.55 ± 0.33 and the activity coefficient (322.55 K) is reported as 5.83 ± 0.35. For the same compound, the activity coefficient (332.55 K) was 4.77 ± 0.29.

For Cc1cccc(C)c1 [1,3-dimethylbenzene] + CCCCn1cc[n+](C)c1.F[B-](F)(F)F, the activity coefficient (303.35 K) was 7.81 ± 0.47, the activity coefficient (312.55 K) was 7.4 ± 0.44 and the activity coefficient (322.55 K) was 6.89 ± 0.41. For the same compound, the activity coefficient (332.55 K) was 6.56 ± 0.39.

Cc1ccc(C)cc1 [1,4-dimethylbenzene] + CCCCn1cc[n+](C)c1.F[B-](F)(F)F showed an activity coefficient (303.35 K) of 7.36 ± 0.44, an activity coefficient (312.55 K) of 6.68 ± 0.4 and an activity coefficient (322.55 K) of 6.71 ± 0.4. For the same compound, the activity coefficient (332.55 K) was 6.26 ± 0.38.

C1COCCO1 [1,4-dioxane] + CCCCn1cc[n+](C)c1.F[B-](F)(F)F showed an activity coefficient (303.35 K) of 1.26 ± 0.08, an activity coefficient (312.55 K) of 1.24 ± 0.07 and an activity coefficient (322.55 K) of 1.28 ± 0.08. It also gave an activity coefficient (332.55 K) of 1.22 ± 0.07.

C#CCCCCC [1-heptyne] + CCCCn1cc[n+](C)c1.F[B-](F)(F)F showed an activity coefficient (303.35 K) of 13.2 ± 0.79, an activity coefficient (312.55 K) of 12.5 ± 0.75 and an activity coefficient (322.55 K) of 11.9 ± 0.72. The activity coefficient (332.55 K) was 11.7 ± 0.7.

For C#CCCCC [1-hexyne] + CCCCn1cc[n+](C)c1.F[B-](F)(F)F, the activity coefficient (303.35 K) was 8.29 ± 0.5, the activity coefficient (312.55 K) was 7.53 ± 0.45 and the activity coefficient (322.55 K) was 7.47 ± 0.45. It also gave an activity coefficient (332.55 K) of 6.82 ± 0.41.

Compound CCC[N+](=O)[O-] [1-nitropropane] + CCCCn1cc[n+](C)c1.F[B-](F)(F)F has an activity coefficient (303.35 K) of 1.54 ± 0.09, an activity coefficient (312.55 K) of 1.46 ± 0.09 and an activity coefficient (322.55 K) of 1.46 ± 0.09. It also gave an activity coefficient (332.55 K) of 1.5 ± 0.09.

In the case of OCC(F)(F)F [2,2,2-trifluoroethanol] + CCCCn1cc[n+](C)c1.F[B-](F)(F)F, the activity coefficient (303.35 K) is reported as 0.36 ± 0.02, the activity coefficient (312.55 K) is reported as 0.33 ± 0.02 and the activity coefficient (322.55 K) is reported as 0.32 ± 0.02. It also gave an activity coefficient (332.55 K) of 0.3 ± 0.02.

CC(C)CC(C)(C)C [2,2,4-trimethylpentane] + CCCCn1cc[n+](C)c1.F[B-](F)(F)F showed an activity coefficient (303.35 K) of 321 ± 19, an activity coefficient (312.55 K) of 231 ± 14 and an activity coefficient (322.55 K) of 198 ± 12. It also gave an activity coefficient (332.55 K) of 272 ± 16.

Work on CC(C)CO [2-methyl-1-propanol] + CCCCn1cc[n+](C)c1.F[B-](F)(F)F yielded an activity coefficient (303.35 K) of 4.17 ± 0.25, an activity coefficient (312.55 K) of 3.99 ± 0.24 and an activity coefficient (322.55 K) of 3.28 ± 0.2. For the same compound, the activity coefficient (332.55 K) was 2.84 ± 0.17.

With CCC(C)CC [3-methylpentane] + CCCCn1cc[n+](C)c1.F[B-](F)(F)F the activity coefficient (303.35 K) was 126 ± 7.6, the activity coefficient (312.55 K) was 94.3 ± 5.7 and the activity coefficient (322.55 K) was 82.9 ± 5. For the same compound, the activity coefficient (332.55 K) was 152 ± 9.2.

For CC#N [acetonitrile] + CCCCn1cc[n+](C)c1.F[B-](F)(F)F, the activity coefficient (303.35 K) was 0.65 ± 0.04, the activity coefficient (312.55 K) was 0.63 ± 0.04 and the activity coefficient (322.55 K) was 0.64 ± 0.04. It also gave an activity coefficient (332.55 K) of 0.61 ± 0.04.

c1ccccc1 [benzene] + CCCCn1cc[n+](C)c1.F[B-](F)(F)F gave an activity coefficient (303.35 K) of 2.2 ± 0.13, an activity coefficient (312.55 K) of 2.17 ± 0.13 and an activity coefficient (322.55 K) of 2.25 ± 0.14. It also gave an activity coefficient (332.55 K) of 2.16 ± 0.13.

Compound CCCCO [butan-1-ol] + CCCCn1cc[n+](C)c1.F[B-](F)(F)F has an activity coefficient (303.35 K) of 4.74 ± 0.29, an activity coefficient (312.55 K) of 3.82 ± 0.23 and an activity coefficient (322.55 K) of 3.33 ± 0.2. It also gave an activity coefficient (332.55 K) of 2.69 ± 0.16.

In the case of CCCC=O [butanal] + CCCCn1cc[n+](C)c1.F[B-](F)(F)F, the activity coefficient (303.35 K) is reported as 2.19 ± 0.13, the activity coefficient (312.55 K) is reported as 2.13 ± 0.13 and the activity coefficient (322.55 K) is reported as 2.15 ± 0.13. It also gave an activity coefficient (332.55 K) of 2.06 ± 0.12.

In the case of CCC(C)=O [butanone] + CCCCn1cc[n+](C)c1.F[B-](F)(F)F, the activity coefficient (303.35 K) is reported as 1.5 ± 0.09, the activity coefficient (312.55 K) is reported as 1.48 ± 0.09 and the activity coefficient (322.55 K) is reported as 1.44 ± 0.09. The activity coefficient (332.55 K) was 1.25 ± 0.08.

For C1CCCCCC1 [cycloheptane] + CCCCn1cc[n+](C)c1.F[B-](F)(F)F, the activity coefficient (303.35 K) was 78.7 ± 4.7, the activity coefficient (312.55 K) was 98.2 ± 5.9 and the activity coefficient (322.55 K) was 131 ± 7.9. The activity coefficient (332.55 K) was 167 ± 10.

Compound C1CCCCC1 [cyclohexane] + CCCCn1cc[n+](C)c1.F[B-](F)(F)F has an activity coefficient (303.35 K) of 62.5 ± 3.8, an activity coefficient (312.55 K) of 48.4 ± 2.9 and an activity coefficient (322.55 K) of 42.7 ± 2.6. The activity coefficient (332.55 K) was 35.3 ± 2.1.

Compound ClCCl [dichloromethane] + CCCCn1cc[n+](C)c1.F[B-](F)(F)F has an activity coefficient (303.35 K) of 0.69 ± 0.04, an activity coefficient (312.55 K) of 0.72 ± 0.04 and an activity coefficient (322.55 K) of 0.79 ± 0.05. The activity coefficient (332.55 K) was 0.79 ± 0.05.

Work on CCOCC [diethyl ether] + CCCCn1cc[n+](C)c1.F[B-](F)(F)F yielded an activity coefficient (303.35 K) of 10.2 ± 0.61, an activity coefficient (312.55 K) of 9.39 ± 0.56 and an activity coefficient (322.55 K) of 8.18 ± 0.49. It also gave an activity coefficient (332.55 K) of 7.42 ± 0.45.

For CC(C)OC(C)C [diisopropyl ether] + CCCCn1cc[n+](C)c1.F[B-](F)(F)F, the activity coefficient (303.35 K) was 30.7 ± 1.8, the activity coefficient (312.55 K) was 33.5 ± 2 and the activity coefficient (322.55 K) was 26.9 ± 1.6. It also gave an activity coefficient (332.55 K) of 24.3 ± 1.5.

With CCO [ethanol] + CCCCn1cc[n+](C)c1.F[B-](F)(F)F the activity coefficient (303.35 K) was 2.15 ± 0.13, the activity coefficient (312.55 K) was 1.91 ± 0.11 and the activity coefficient (322.55 K) was 1.7 ± 0.1. It also gave an activity coefficient (332.55 K) of 1.53 ± 0.09.
